Test results: publication PMC7664879, “Discovery of 12O—A Novel Oral Multi-Kinase Inhibitor for the Treatment of Solid Tumor” (Molecules, 2020)

Columns and labels:
SiHa = experiment: CCK-8 cell growth inhibition, SiHa; format: cell-based, human; conditions: Homo sapiens, SiHa; CCK-8 assay, 72-h incubation; read-out: Cell Lines IC50 SiHa
Protocol: (§1) In vitro anticancer screening of all newly synthesized compounds towards human solid tumor cells, cervical (SiHa) and ovarian (SKOV3) cancer cell lines, was carried out by standard CCK-8 assay with cisplatin as the positive control, as cisplatin is one of the most used chemotherapy drugs. […] The compound was further evaluated in a dose response study against a panel of solid tumor cells, including cervical cancer cell lines (SiHa and HeLa), ovarian cancer cell lines (SKOV3 and OVCAR-5), breast cancer cell lines (4T1 and MCF-7), lung cancer cell lines (A549 and H460) to test cytotoxic activity. The IC50 values were summarized in Table 2, including the cytotoxic activity of the cisplatin used as reference compound.
(§2) The viability of cells as determined using the CCK8 assay method. Cells were seeded (2000–3000 cells per well) in 96-well plates. After incubation for 24 h in serum-containing media, the cells were treated with drugs at different concentrations diluted with culture medium for 72 h at 37 °C with a 5% CO2 atmosphere. Then, 10 μL CCK8 regent (Promega, WI) was added to each well, and the plates were incubated for 1–4 h at 37 °C. Finally, absorbance values of test wells (AS), control wells (AC) and blank wells (Ab) at 450 nm were read using the Microplate Reader (Promega, WI). Inhibition ratios were calculated as follows: [(AC − AS)/ (AC−Ab)] × 100%. IC50 values were calculated using GraphPad software.

CDK5/p25(h) = target: T1, CDK5/p25(h) (Homo sapiens, UniProt Q00535); experiment: Kinase inhibition assay (Eurofins KinaseProfiler); format: biochemical; conditions: ATP at Km
T1 construct: purchased Eurofins (KinaseProfiler service)
Protocol: (§3) Kinase inhibition profiles were determined using KinaseProfiler services provided by Eurofins, and ATP concentrations used are the Km of corresponding kinases.
(§4) CDK1/cyclinB (h) (CDK2/cyclinA (h), CDK3/cyclinE (h), CDK4/CyclinD(h), CDK5/p25 (h), CDK6/cyclinD3 (h)) were incubated with 8 mM MOPS pH 7.0, 0.2 mM EDTA, 0.1 mg/mL histone H1, 10 mM MgAcetate and [gamma-33P]-ATP (specific activity and concentration as required).
(§5) All the reactions above were initiated by the addition of the Mg/ATP mix. After incubation for 40 min at room temperature, the reaction was stopped by the addition of phosphoric acid to a concentration of 0.5%. An amount of 10 µL of the reaction was then spotted onto a P30 filtermat and washed four times for 4 min in 0.425% phosphoric acid and once in methanol prior to drying and scintillation counting.

CDK4/cyclinD(h) = target: T2, CDK4/cyclinD(h) (Homo sapiens, UniProt P11802); experiment: Kinase inhibition assay (Eurofins KinaseProfiler); format: biochemical; conditions: ATP at Km
T2 construct: purchased Eurofins (KinaseProfiler service)
Protocol: as §3, §4, §5

CDK3/cyclinE(h) = target: T3, CDK3/cyclinE(h) (Homo sapiens, UniProt Q00526); experiment: Kinase inhibition assay (Eurofins KinaseProfiler); format: biochemical; conditions: ATP at Km
T3 construct: purchased Eurofins (KinaseProfiler service)
Protocol: as §3, §4, §5

CDK2/cyclinA(h) = target: T4, CDK2/cyclinA(h) (Homo sapiens, UniProt P24941); experiment: Kinase inhibition assay (Eurofins KinaseProfiler); format: biochemical; conditions: ATP at Km
T4 construct: purchased Eurofins (KinaseProfiler service)
Protocol: as §3, §4, §5

CDK6/cyclinD3(h) = target: T5, CDK6/cyclinD3(h) (Homo sapiens, UniProt Q00534); experiment: Kinase inhibition assay (Eurofins KinaseProfiler); format: biochemical; conditions: ATP at Km
T5 construct: purchased Eurofins (KinaseProfiler service)
Protocol: as §3, §4, §5

CDK1/cyclinB(h) = target: T6, CDK1/cyclinB(h) (Homo sapiens, UniProt P06493); experiment: Kinase inhibition assay (Eurofins KinaseProfiler); format: biochemical; conditions: ATP at Km
T6 construct: purchased Eurofins (KinaseProfiler service)
Protocol: as §3, §4, §5

MCF-7 = experiment: CCK-8 cell growth inhibition, MCF-7; format: cell-based, human; conditions: Homo sapiens, MCF7; breast cancer; CCK-8 assay, 72-h incubation
Protocol: as §1
as §2, with “Then, 10 μL CCK8 regent (Promega, WI) was added to each well, and the plates were incubated for 1–4 h at 37 °C.” left out

A549 = experiment: CCK-8 cell growth inhibition, A549; format: cell-based, human; conditions: Homo sapiens, A549; lung cancer; CCK-8 assay, 72-h incubation
Protocol: as §1
as §2, with “Then, 10 μL CCK8 regent (Promega, WI) was added to each well, and the plates were incubated for 1–4 h at 37 °C.” left out

H460 = experiment: CCK-8 cell growth inhibition, H460; format: cell-based, human; conditions: Homo sapiens, NCI-H460; lung cancer; CCK-8 assay, 72-h incubation
Protocol: as §1
as §2, with “Then, 10 μL CCK8 regent (Promega, WI) was added to each well, and the plates were incubated for 1–4 h at 37 °C.” left out

T6 sequence (P06493 whole entry): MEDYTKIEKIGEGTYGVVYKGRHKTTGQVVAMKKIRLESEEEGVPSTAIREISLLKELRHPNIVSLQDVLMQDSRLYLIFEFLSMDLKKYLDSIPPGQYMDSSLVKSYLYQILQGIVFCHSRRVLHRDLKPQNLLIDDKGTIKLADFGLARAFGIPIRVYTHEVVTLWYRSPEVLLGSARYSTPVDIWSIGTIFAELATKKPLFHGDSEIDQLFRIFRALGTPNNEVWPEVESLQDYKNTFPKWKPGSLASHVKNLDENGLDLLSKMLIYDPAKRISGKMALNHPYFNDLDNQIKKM
T6 sequence (P14635 whole entry partner): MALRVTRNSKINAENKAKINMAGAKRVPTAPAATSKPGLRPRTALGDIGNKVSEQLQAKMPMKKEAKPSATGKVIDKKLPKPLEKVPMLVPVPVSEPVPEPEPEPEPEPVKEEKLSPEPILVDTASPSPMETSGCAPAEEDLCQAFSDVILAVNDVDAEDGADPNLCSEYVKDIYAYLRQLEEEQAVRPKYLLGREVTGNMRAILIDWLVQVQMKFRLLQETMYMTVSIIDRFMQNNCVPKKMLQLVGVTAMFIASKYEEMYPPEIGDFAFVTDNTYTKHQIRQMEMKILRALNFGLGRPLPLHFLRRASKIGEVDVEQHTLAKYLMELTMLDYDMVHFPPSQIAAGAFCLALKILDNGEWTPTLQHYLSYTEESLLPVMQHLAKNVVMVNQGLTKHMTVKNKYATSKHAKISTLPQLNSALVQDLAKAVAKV
T1 sequence (Q00535 whole entry): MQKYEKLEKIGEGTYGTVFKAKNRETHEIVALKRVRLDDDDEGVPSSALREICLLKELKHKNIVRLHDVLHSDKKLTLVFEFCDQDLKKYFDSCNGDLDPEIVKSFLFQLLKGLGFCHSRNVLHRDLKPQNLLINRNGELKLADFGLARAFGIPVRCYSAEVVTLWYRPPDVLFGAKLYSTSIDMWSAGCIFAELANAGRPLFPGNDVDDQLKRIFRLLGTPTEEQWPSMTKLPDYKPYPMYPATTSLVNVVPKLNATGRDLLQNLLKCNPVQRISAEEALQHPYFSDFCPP
T1 sequence (Q15078 99-307 partner limits assumed): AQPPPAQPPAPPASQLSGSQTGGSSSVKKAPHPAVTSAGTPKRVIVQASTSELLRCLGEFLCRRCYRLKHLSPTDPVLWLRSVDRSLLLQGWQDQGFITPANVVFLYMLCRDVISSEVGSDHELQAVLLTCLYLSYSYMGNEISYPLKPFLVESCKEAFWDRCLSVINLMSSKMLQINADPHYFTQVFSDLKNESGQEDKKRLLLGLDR
T2 sequence (P11802 whole entry): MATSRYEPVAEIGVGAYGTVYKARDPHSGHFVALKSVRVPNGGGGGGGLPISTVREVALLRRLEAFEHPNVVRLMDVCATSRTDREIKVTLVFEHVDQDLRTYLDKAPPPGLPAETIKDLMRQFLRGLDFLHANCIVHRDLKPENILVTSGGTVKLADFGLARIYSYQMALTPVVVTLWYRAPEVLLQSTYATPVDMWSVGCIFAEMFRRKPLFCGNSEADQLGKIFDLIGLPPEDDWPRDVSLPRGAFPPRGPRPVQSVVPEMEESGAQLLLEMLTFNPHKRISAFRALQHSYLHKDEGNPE
T2 sequence (P30281 whole entry partner): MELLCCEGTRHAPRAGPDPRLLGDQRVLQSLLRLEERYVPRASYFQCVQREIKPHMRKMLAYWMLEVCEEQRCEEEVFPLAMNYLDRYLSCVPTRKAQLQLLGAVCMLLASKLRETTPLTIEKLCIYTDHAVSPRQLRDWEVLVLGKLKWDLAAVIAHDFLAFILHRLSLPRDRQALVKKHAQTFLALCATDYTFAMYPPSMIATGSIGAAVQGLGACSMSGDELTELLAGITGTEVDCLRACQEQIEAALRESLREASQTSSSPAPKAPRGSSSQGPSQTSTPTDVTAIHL
T5 sequence (Q00534 whole entry): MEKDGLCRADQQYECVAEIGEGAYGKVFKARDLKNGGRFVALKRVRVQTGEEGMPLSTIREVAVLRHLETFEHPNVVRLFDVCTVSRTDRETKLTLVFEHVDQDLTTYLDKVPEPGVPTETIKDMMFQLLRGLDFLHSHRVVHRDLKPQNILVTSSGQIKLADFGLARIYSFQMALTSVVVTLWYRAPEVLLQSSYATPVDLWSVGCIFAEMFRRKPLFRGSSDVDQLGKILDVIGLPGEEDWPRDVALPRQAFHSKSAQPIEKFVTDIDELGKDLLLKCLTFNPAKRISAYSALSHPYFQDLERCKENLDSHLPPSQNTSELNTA
T5 sequence (P30281 whole entry partner): as the sequence (P30281 whole entry partner) above
T3 sequence (Q00526 whole entry): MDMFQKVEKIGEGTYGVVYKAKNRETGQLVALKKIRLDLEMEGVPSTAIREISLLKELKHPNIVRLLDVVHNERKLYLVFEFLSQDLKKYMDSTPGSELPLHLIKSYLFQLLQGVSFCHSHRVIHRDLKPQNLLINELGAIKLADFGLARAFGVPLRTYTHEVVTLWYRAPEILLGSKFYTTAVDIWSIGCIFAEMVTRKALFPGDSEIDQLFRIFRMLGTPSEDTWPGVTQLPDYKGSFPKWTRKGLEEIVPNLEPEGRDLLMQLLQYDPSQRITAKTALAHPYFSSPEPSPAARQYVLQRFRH
T3 sequence (P24864 whole entry partner): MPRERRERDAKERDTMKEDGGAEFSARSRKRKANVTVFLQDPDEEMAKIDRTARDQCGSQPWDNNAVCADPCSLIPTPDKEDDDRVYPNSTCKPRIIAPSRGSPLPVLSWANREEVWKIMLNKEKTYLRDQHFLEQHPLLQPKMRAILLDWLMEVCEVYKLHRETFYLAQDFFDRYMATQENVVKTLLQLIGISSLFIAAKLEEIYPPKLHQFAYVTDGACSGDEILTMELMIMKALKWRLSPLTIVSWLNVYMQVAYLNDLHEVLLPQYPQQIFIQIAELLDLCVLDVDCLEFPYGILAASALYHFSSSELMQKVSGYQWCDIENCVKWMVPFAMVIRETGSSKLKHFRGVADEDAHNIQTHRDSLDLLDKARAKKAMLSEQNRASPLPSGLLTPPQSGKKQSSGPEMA

`CC(C)n1nnc2ccc(-c3nc(Nc4ccc(CNC(=O)C5(C(=O)Nc6ccccc6)CC5)cc4)ncc3F)cc21` [12O] showed an IC50 (SiHa) of 0.009 µM, an inhibition at 1 µM (CDK5/p25(h); 1 µM) of 99% and an IC50 (CDK5/p25(h)) of 0.006 µM. It also gave an inhibition at 1 µM (CDK4/cyclinD(h); 1 µM) of 91%, an IC50 (CDK4/cyclinD(h)) of 0.157 µM and an inhibition at 1 µM (CDK3/cyclinE(h)) of 86%. The inhibition at 1 µM (CDK2/cyclinA(h); 1 µM) was 99%, the IC50 (CDK2/cyclinA(h)) was 0.005 µM and the inhibition at 1 µM (CDK6/cyclinD3(h)) was 74%. For the same molecule, the inhibition at 1 µM (CDK1/cyclinB(h); 1 µM) was 98%, the IC50 (CDK1/cyclinB(h)) was 0.01 µM and the IC50 (MCF-7) was 0.01 µM. It also gave an IC50 (A549) of 0.035 µM and an IC50 (H460) of 0.041 µM.
